Results as given in patent publication US7109173B1, “Transport of nucleotides, oligonucleotides and polynucleotides into the cytoplasm and nucleus of cells by peptides” (priority 2004, dated 2006).

How the values were obtained:
Assay type in all cases: cell-based
[1] = system: human fibroblasts; assay: Uptake of polynucleotides in the presence and absence of peptides by human fibroblasts, spectrophotometric; set-up: Absorbance, Peptides / Absorbance, Without Peptides: dose or concentration left out as unconfirmed; details: 24 hrs minus zero time values; for μ grams, Peptides / Absorbance, Peptides: with peptides; for Absorbance, Peptides / Absorbance, Without Peptides: absorbance at 260 nm, ± standard deviation
Protocol: 1. Analysis of control cells stopped at zero time gives the original content of nucleotides of interest.
2. Analysis of control cells stopped after 24 hour incubation gives the change in nucleotide content during the 24 hr period. That is, 24 hr content of control cells minus zero time control cells nucleotide content equals net change.
3. Analysis of nucleotide treated cells at zero time incubation gives the initial content and/or bound nucleotides.
4. Analysis of nucleotide treated cells at 24 hour time gives the amount present after 24 hours.
5. 24 hour content minus zero time content gives the net change in nucleotide content.
6. The net content of the 24 hr nucleotide treated cells minus the zero time content of nucleotides gives the amount transported by the peptides.
7. The net values are previously corrected for the amount in the original media and wash for the treated cells.
(§1) Fibroblasts cells were incubated for 24 hrs with and without fetal calf serum. Cells harvested at zero time served as controls. They were subjected to all of the analyses performed on experimental cells. Cells were harvested as described in ‘section V. Methods and Materials’. Macrophages were treated the same as previously described for fibroblasts except human serum was used in place of fetal calf serum and they were not cultured without serum. Cells were incubated with predetermined amounts of nucleotides with and without peptide Incubations were stopped at zero time and 24 hrs. The media harvested at zero and 24 hrs was saved for analysis for peptides and nucleotides. Cells were washed and harvested as described previously. The wash was saved for analysis of peptides and nucleotides. Some cells were sonicated and aliquots analyzed for radioactivity by a liquid scintillation spectrometer (counter). […] Spectrophotometric analysis quantifies the amount of nucleotide retained. VI: Extraction of lipids—The non-saponifiable lipids and free fatty acids were extracted using petroleum ether (30–60° C.). Neutral lipids were extracted with petroleum ether without prior saponification. […] The latter two methods, when used, necessitate extensive chromatographic separation of mevalonate from the phospholipids and neutral lipids. […] Control experiments in which the reaction was stopped at zero time and in which the enzyme preparation is omitted show no radioactivity is extracted when the usual incubation, saponification, and isolation procedures were performed.
(§2) a) Isolating the peptides then b) incubating the peptide sample with predetermined amounts of nucleotides with and without peptides. After this, the nucleotides are transferred into the cells. Cells were treated with homopolymers in the presence and absence of the peptides. Uptake was determined as described under Methods and Materials, above. The polynucleotides were quantified spectrophotometrically and by single cell fluorescence analysis using syto-13 (Molecular Probes).
The cells were cultured as described under Methods, above. The experiments were stopped at zero time and 24 hours. Values are obtained by subtracting initial zero time values from those of 24 hrs. Values are ±standard deviation. Absorbance measured spectrophotometrically at […].

[2] = system: cells; assay: Determination of cellular loci of administered polynucleotides by differential centrifugation; set-up: Absorbance, Nuclear Fraction / Absorbance, Microsomal Fraction: dose or concentration left out as unconfirmed; details: for μ grams, Microsomal Fraction / μ grams, Nuclear Fraction: calculated after subtracting zero time control values from experimental values; for Absorbance, Microsomal Fraction / Absorbance, Nuclear Fraction: observed values, absorbance at 260 nm
Protocol: as §1
Cells were cultured and treated as described under Methods, above. Cells were subjected to differential centrifugation. μ grams calculated after correction of values by subtracting zero time control values from experimental values. No significant absorbances of nucleotides were detected in the experimental samples in the mitochondrial-lysosomal fraction when zero time control values were subtracted from the experimental values. Absorbance was measured spectrophotometrically at […]. […] In a preferred embodiment of this invention, the target cells are smooth muscle cells and macrophages which are found in atheromatous plaques. The plaques are a focal thickening of the intima caused by proliferation of smooth muscle cells.

[3] = system: Fibroblasts; assay: Uptake of homopolymers by fibroblasts, single cell fluorescence analysis with syto-13; details: fibroblasts stained with syto-13, relative intensity ± standard deviation, n = number of cells
Protocol: as §1, §2
Fibroblasts were cultured as described under V.Methods and Materials. Cells were stained with syto-13 (Molecular Probes). Single cell fluorescence analysis was performed using a Zeiss microsope photometer. Values are relative intensity ±standard deviation. N=number of cells.

| Substance | μ grams, Peptides [1] | Absorbance, Peptides [1] | μ grams, Without Peptides [1] | Absorbance, Without Peptides [1] | μ grams, Microsomal Fraction [2] | Absorbance, Microsomal Fraction [2] | μ grams, Nuclear Fraction [2] | Absorbance, Nuclear Fraction [2] | Fluorescence Relative Intensity, Control [3] | Fluorescence Relative Intensity, Experimental [3] |
| --- | --- | --- | --- | --- | --- | --- | --- | --- | --- | --- |
| Polyadenylic acid | 252 μ grams | 0.200 ± 0.101 | 59 μ grams | 0.047 ± 0.025 | 155 μ grams | 0.242 ± 0.038 | 59.1 μ grams | 0.265 ± 0.061 | 11.7 ± 3.8 (n = 22) | 27.4 ± 7.5 (n = 23) |
| Polyguanylic acid | 1160 μ grams | 0.444 ± 0.058 | 580 μ grams | 0.223 ± 0.084 |  |  | 747.7 μ grams | 0.354 ± 0.030 | 13.1 ± 3.1 (n = 24) | 39.2 ± 9.5 (n = 17) |
| Polyuridylic acid | 436 μ grams | 0.370 ± 0.07 | 82 μ grams | 0.071 ± 0.013 | 186 μ grams | 0.313 ± 0.030 | 246.1 μ grams | 0.326 ± 0.050 | 4.4 ± 1.3 (n = 22) | 16.8 ± 4.6 (n = 23) |
| Polycytidylic acid | 380 μ grams | 0.209 ± 0.028 | 94 μ grams | 0.052 ± 0.031 | 153 μ grams | 0.236 ± 0.025 | 107.4 μ grams | 0.254 ± 0.026 | 3.3 ± 0.6 (n = 14) | 14.9 ± 1.6 (n = 14) |
